Test results as given in patent publication US11015216B2, “Substituted imidazo[1,2-a]pyrazines as luciferase substrates” (PROMEGA CORPORATION, priority 2016, dated 2021).

Key:
luciferase [1] = test: Additional luciferase substrate assay, compared to known analogue C-1 (Table 3); assay type: biochemical; settings: relative to C-1 (=1)
Experimental: (§1) Luminescence Assay Procedure: Each compound to be screened was dissolved in DMSO (5 mM) and then further diluted to 100 uM in NANO-GLOR Luciferase Assay Buffer. Each diluted substrate was then combined in equal volumes with purified NanoLuc® Luciferase diluted into CO2 independent media+10% FBS. Initial light output for each substrate was measured in a GloMax®-Multi+ luminometer three minutes after substrate addition and then at five minute intervals as a means to determine signal half-life.
The compounds of formula (I) were also evaluated for their ability to be luciferase substrates in an additional assay.

NanoLuc® Luciferase = NanoLuc® Luciferase (Oplophorus gracilirostris, UniProt Q9GV45, A31E/A60N/A81I/F95D/I117V/K70R/L54V/L99Q/M102K/N193R/P142E/Q151K/Q38R/Q45L/V71I/Y165I); assay type: biochemical; settings: ratio to coelenterazine (=1); for I (relative light units, ratio in comparison to native coelenterazine): initial light output three minutes after substrate addition; for Half-life (signal half-life, ratio in comparison to native coelenterazine): read at five minute intervals
Sequence of NanoLuc® Luciferase (Q9GV45 other isoform, or with tags, fused parts or gaps with the stated changes): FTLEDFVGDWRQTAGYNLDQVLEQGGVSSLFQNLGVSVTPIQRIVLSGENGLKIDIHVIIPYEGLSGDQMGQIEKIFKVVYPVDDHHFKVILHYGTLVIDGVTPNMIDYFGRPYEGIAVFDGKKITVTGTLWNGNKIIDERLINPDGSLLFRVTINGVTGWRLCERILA
Experimental: as §1
A subset of the synthesized coelenterazine analogues (compounds of formula (I)) were evaluated for their suitability as luciferase substrates. NANOLUC® luciferase was employed for the screening because it is a small (19 kDa), stable, and particularly bright enzyme.

luciferase [2] = test: Additional luciferase substrate assay, compared to known analogue C-1 (Table 3); assay type: biochemical; settings: relative to C-1 (=1); cell marked (75) instead of @100 uM
HeLa cells = test: Cell viability assay, HeLa; assay type: cell-based; settings: 24 h incubation, serial dilution, FIGS. 3 and 4
Experimental: (§2) Cell Culture: HeLa and HEK293 cells were maintained in DMEM containing 0.3 mg/ml glutamine, 100 IU/ml penicillin, 100 μg/ml streptomycin, and 10% fetal calf serum at 37° C. in 5% CO2. Dulbecco's modified eagle medium (DMEM), Opti-MEM, Penicillin/Streptomycin, and Trypsin-EDTA were purchased from Life Technologies (Carlsbad). Fetal calf serum (FBS) was purchased from HyClone (GE Healthcare). Microtiter plates were purchased from Corning.
(§3) Cell viability assay: HEK293 or HeLa cells were plated in […] growth medium (DMEM supplemented with 10% FBS) into wells of white, TC-treated, 96-well plates at a density of 10000 cells per well and incubated for 24 h. The growth medium was then replaced with 100 μl Opti-MEM medium, which contained a serial dilution of the indicated compound. Changes in cell viability were then measured after incubation for 24 h using the […]® Green cell viability assay (Promega) according to manufacturer instructions. All luminescent measurements were performed on a GLOMAX® Discover multimode plate reader (Promega).

HEK293 cells = test: Cell viability assay, HEK293; assay type: cell-based; settings: Hek293, 24 h incubation, serial dilution; FIGS. 5 and 6
Experimental: as §2, §3

Structure (SMILES) | RLU (@100 uM) (luciferase [1]) | I (relative light units, ratio in comparison to native coelenterazine) (NanoLuc® Luciferase) | Half-life (signal half-life, ratio in comparison to native coelenterazine) (NanoLuc® Luciferase) | RLU (luciferase [2]) | compound-induced cellular toxicity compared to coelenterazine (HeLa cells) | compound-induced cellular toxicity compared to coelenterazine (HEK293 cells)
Cn1nc(-c2cccs2)cc1Cc1nc2c(Cc3ccccc3)[nH]c(-c3ccccc3)cn-2c1=O [Compound 12] | 0.0046 | 0.192 | 0.57 | – | – | –
Cc1noc(C)c1Cc1nc2c(Cc3ccccc3)[nH]c(-c3ccccc3)cn-2c1=O [Compound 13] | 0.014 | 0.583 | 2.64 | – | – | –
O=c1c(Cc2cn(-c3ccccc3)nc2-c2ccccc2)nc2c(Cc3ccccc3)[nH]c(-c3ccccc3)cn1-2 [Compound 14] | 0.001 | 0.042 | 2.15 | – | – | –
COc1ncc(Cc2nc3c(Cc4ccccc4)[nH]c(-c4ccccc4)cn-3c2=O)cn1 [Compound 15] | 0.014 | 0.583 | 0.88 | – | – | –
Cn1cc(Cc2nc3c(Cc4ccccc4)[nH]c(-c4ccccc4)cn-3c2=O)c(=O)n(C)c1=O [Compound 16] | 0.0001 | 0.0042 | 0.005 | – | – | –
O=c1c(Cc2ccc(F)c(O)c2)nc2c(Cc3ccccc3)[nH]c(-c3ccccc3)cn1-2 [Compound 20] | – | – | – | 0.29 (75) | – | –
COc1cc(F)ccc1Cc1nc2c(Cc3ccccc3)[nH]c(-c3ccccc3)cn-2c1=O [Compound 22] | – | – | – | 0.3 (75) | – | –
O=c1c(Cc2cccnc2)nc2c(Cc3ccccc3)[nH]c(-c3ccccc3)cn1-2 [Compound 64] | 0.066 | 2.75 | 3.03 | – | – | –
O=c1c(Cc2ccc(F)nc2F)nc2c(Cc3ccccc3)[nH]c(-c3ccccc3)cn1-2 [Compound 65] | 0.26 | 10.833 | 0.62 | – | – | –
O=c1c(Cc2cncc(F)c2)nc2c(Cc3ccccc3)[nH]c(-c3ccccc3)cn1-2 [Compound 66] | 0.039 | 1.625 | 0.98 | – | – | –
O=c1c(Cc2cccnc2F)nc2c(Cc3ccccc3)[nH]c(-c3ccccc3)cn1-2 [Compound 67] | 0.11 | 4.583 | 1.14 | – | – | –
O=c1c(Cc2ccc(F)nc2)nc2c(Cc3ccccc3)[nH]c(-c3ccccc3)cn1-2 [Compound 68] | 0.31 | 12.916 | 0.93 | – | – | –
O=c1c(Cc2ccc(Cl)nc2)nc2c(Cc3ccccc3)[nH]c(-c3ccccc3)cn1-2 [Compound 69] | 0.18 | 7.5 | 0.35 | – | – | –
O=c1c(Cc2ccc(Br)nc2)nc2c(Cc3ccccc3)[nH]c(-c3ccccc3)cn1-2 [Compound 70] | 0.12 | 5 | 0.19 | – | – | –
COc1ccc(Cc2nc3c(Cc4ccccc4)[nH]c(-c4ccccc4)cn-3c2=O)cn1 [Compound 71] | 0.65 | 27.083 | 0.14 | – | – | –
COc1cncc(Cc2nc3c(Cc4ccccc4)[nH]c(-c4ccccc4)cn-3c2=O)c1 [Compound 72] | 0.029 | 1.208 | 0.88 | – | – | –
COc1ccc(Cc2nc3c(Cc4ccccc4)[nH]c(-c4ccccc4)cn-3c2=O)c(OC)n1 [Compound 73] | 0.16 | 6.666 | 0.93 | – | – | –
COc1nc(Cl)ccc1Cc1nc2c(Cc3ccccc3)[nH]c(-c3ccccc3)cn-2c1=O [Compound 74] | 0.072 | 3 | 1.09 | – | – | –
O=c1c(Cc2ccc(Cl)nc2Cl)nc2c(Cc3ccccc3)[nH]c(-c3ccccc3)cn1-2 [Compound 75] | 0.023 | 0.958 | 0.57 | – | – | –
Cc1ccc(Cc2nc3c(Cc4ccccc4)[nH]c(-c4ccccc4)cn-3c2=O)cn1 [Compound 76] | 0.04 | 1.666 | 1.14 | – | notably reduced toxicity | notably reduced toxicity
CN(C)c1ccc(Cc2nc3c(Cc4ccccc4)[nH]c(-c4ccccc4)cn-3c2=O)cn1 [Compound 77] | 0.042 | 1.75 | 0.57 | – | – | –
O=c1c(Cc2c(F)cc(F)cc2F)nc2c(Cc3ccccc3)[nH]c(-c3ccccc3)cn1-2 [Compound 78] | 0.21 | 8.75 | 0.43 | – | – | –
N#Cc1cccc(Cc2nc3c(Cc4ccccc4)[nH]c(-c4ccccc4)cn-3c2=O)c1 [Compound 79] | 0.33 | 13.87 | 0.52 | – | – | –
O=c1c(Cc2cn3ccsc3n2)nc2c(Cc3ccccc3)[nH]c(-c3ccccc3)cn1-2 [Compound 80] | 0.052 | 2.166 | 1.62 | – | – | –
O=c1c(Cc2ccc(CN3CCOCC3)o2)nc2c(Cc3ccccc3)[nH]c(-c3ccccc3)cn1-2 [Compound 81] | 0.0059 | 0.246 | 1.19 | – | – | –
O=c1c(Cc2cnns2)nc2c(Cc3ccccc3)[nH]c(-c3ccccc3)cn1-2 [Compound 82] | 0.13 | 5.416 | 1.19 | – | – | –
